This is an account of results in ChEMBL document CHEMBL5291721, “A preclinical secondary pharmacology resource illuminates target-adverse drug reaction associations of marketed drugs” (Nat Commun, 2023).

Targets include Adenosine receptor A2a (Homo sapiens, UniProt P29274); Vasopressin V2 receptor (Homo sapiens, UniProt P30518); Histamine H1 receptor (Homo sapiens, UniProt P35367).
Assay [1] concerns the target T1, Alpha-2A adrenergic receptor (Homo sapiens, UniProt P08913).
T1 sequence (P08913 whole entry): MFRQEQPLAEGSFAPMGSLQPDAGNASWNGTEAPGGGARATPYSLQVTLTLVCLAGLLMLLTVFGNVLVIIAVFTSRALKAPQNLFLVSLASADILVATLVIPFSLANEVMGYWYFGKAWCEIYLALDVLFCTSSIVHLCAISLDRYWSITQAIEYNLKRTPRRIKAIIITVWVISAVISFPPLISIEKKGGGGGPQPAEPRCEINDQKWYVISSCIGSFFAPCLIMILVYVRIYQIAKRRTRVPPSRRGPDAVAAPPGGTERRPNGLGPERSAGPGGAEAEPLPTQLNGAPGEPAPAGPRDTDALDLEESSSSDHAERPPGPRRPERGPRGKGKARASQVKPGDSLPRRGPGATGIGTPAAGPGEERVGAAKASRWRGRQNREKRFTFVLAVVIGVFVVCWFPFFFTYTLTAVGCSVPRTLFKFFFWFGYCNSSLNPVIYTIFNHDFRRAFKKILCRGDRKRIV
It is filed as functional, cell-based.

The target in assay [2] is Beta-2 adrenergic receptor (Homo sapiens, UniProt P07550).
The target in the next assay is T2, B2 bradykinin receptor (Homo sapiens, UniProt P30411).
T2 sequence (P30411 whole entry): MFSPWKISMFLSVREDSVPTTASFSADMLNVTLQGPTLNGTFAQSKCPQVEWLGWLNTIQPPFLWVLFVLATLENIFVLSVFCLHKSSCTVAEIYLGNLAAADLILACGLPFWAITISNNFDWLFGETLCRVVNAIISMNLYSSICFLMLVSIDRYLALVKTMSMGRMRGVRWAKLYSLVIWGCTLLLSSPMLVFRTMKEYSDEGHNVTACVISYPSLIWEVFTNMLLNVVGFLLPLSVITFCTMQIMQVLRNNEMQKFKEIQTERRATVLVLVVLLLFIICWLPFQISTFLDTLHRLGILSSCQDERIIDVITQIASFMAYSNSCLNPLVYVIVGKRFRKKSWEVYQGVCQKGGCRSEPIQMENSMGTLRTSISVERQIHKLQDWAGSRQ

The target in assay [3] is T3, Muscarinic acetylcholine receptor M2 (Homo sapiens, UniProt P08172).
T3 sequence (P08172 whole entry): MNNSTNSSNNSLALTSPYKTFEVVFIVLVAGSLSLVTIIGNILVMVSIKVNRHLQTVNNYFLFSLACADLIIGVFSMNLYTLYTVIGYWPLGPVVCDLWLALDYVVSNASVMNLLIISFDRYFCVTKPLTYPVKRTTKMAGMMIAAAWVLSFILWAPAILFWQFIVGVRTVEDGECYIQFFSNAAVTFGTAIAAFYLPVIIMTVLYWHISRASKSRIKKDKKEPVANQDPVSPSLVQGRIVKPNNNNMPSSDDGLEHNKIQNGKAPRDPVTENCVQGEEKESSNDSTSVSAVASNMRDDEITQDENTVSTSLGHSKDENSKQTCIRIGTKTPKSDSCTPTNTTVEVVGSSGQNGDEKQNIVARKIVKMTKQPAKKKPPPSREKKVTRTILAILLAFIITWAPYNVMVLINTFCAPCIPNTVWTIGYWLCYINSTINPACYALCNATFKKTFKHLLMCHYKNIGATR
It is filed as functional, cell-based.

The target in assay [4] is T3, Muscarinic acetylcholine receptor M2. It is filed as functional, cell-based. This is another data set of the same source.
The target of assay [5] is Gamma-aminobutyric acid receptor subunit alpha-1 (Rattus norvegicus, UniProt P62813).
Gamma-aminobutyric acid receptor subunit alpha-1, sequence (P62813 whole entry): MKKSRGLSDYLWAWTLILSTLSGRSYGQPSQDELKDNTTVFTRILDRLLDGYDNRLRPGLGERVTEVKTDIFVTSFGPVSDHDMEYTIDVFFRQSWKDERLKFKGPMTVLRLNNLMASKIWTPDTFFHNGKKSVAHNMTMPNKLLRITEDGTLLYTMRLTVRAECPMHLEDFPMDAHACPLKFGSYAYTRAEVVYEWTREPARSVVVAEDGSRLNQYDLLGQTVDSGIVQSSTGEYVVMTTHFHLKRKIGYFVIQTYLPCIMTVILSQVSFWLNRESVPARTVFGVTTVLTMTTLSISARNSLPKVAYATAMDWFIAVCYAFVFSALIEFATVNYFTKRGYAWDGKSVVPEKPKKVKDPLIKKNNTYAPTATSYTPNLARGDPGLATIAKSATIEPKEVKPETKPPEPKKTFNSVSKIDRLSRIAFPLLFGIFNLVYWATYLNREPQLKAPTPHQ
The target in assay [6] is 5-hydroxytryptamine receptor 2B (Homo sapiens, UniProt P41595). Format: functional, cell-based.
5-hydroxytryptamine receptor 2B, sequence (P41595 whole entry): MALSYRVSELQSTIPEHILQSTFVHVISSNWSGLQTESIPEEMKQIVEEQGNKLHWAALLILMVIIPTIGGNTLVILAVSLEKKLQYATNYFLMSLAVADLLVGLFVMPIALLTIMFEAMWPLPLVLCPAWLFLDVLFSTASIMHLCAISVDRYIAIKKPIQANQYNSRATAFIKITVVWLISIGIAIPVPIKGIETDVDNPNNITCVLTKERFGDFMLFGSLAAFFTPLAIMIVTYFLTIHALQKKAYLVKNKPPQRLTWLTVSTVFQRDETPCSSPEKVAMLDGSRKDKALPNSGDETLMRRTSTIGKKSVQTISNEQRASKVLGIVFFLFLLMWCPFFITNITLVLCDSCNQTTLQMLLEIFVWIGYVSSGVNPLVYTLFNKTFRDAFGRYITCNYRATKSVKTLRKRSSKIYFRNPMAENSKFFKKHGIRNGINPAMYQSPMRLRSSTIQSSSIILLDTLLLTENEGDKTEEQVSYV
The target of assay [7] is T4, Prostaglandin G/H synthase 1 (Rattus norvegicus, UniProt Q63921).
T4 sequence (Q63921 whole entry): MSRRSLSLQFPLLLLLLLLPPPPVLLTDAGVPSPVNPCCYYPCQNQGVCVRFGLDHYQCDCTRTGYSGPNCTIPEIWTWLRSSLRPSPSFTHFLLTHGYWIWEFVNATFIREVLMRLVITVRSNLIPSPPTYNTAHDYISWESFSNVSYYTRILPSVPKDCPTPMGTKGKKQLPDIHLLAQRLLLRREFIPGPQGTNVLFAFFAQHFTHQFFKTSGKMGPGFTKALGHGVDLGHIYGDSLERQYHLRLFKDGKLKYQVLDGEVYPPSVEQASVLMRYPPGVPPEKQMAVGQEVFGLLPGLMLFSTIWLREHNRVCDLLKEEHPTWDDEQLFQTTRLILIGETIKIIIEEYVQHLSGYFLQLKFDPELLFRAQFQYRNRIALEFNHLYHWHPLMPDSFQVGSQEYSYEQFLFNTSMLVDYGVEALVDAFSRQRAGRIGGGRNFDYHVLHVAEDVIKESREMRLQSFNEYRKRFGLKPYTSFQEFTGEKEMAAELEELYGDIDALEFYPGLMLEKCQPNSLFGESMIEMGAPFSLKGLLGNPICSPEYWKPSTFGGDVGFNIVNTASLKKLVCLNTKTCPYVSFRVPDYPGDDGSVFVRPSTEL
It is filed as functional.

Assay [8] concerns the target T5, Equilibrative nucleoside transporter 1 (Homo sapiens, UniProt Q99808).
T5 sequence (Q99808 whole entry): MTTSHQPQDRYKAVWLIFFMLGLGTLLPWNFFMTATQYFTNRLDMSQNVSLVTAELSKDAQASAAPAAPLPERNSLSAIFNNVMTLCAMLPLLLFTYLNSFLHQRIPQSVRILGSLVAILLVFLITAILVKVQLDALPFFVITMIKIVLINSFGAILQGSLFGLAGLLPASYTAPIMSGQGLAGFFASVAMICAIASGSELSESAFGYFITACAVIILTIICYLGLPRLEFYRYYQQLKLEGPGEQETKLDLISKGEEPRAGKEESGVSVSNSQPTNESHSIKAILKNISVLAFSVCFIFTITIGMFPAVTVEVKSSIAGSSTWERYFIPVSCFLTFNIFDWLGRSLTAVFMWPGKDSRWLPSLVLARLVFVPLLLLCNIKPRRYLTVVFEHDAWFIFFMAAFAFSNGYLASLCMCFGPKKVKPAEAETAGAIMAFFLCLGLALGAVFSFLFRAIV

The target in assay [9] is Sodium-dependent serotonin transporter (Homo sapiens, UniProt P31645).
Sodium-dependent serotonin transporter, sequence (P31645 whole entry): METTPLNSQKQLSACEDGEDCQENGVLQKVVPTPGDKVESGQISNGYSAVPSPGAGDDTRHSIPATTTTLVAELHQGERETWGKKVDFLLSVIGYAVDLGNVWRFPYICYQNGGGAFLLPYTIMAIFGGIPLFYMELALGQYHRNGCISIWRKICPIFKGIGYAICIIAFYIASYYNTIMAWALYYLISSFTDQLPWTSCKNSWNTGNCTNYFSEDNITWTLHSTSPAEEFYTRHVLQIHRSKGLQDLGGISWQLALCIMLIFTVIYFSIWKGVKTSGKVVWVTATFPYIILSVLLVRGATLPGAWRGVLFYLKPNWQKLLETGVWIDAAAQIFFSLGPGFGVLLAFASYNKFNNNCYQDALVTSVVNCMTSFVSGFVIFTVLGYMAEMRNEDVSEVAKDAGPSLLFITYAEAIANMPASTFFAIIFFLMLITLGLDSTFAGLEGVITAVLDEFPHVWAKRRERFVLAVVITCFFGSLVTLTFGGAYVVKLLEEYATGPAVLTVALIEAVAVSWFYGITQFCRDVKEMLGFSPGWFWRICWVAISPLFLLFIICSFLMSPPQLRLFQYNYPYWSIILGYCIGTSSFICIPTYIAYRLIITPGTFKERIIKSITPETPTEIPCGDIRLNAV
Assay [10] has as its target 5-hydroxytryptamine receptor 2A (Homo sapiens, UniProt P28223). Format: functional, cell-based.
Also: assay procedure not described here.

Histamine H1 receptor, sequence (P35367 whole entry): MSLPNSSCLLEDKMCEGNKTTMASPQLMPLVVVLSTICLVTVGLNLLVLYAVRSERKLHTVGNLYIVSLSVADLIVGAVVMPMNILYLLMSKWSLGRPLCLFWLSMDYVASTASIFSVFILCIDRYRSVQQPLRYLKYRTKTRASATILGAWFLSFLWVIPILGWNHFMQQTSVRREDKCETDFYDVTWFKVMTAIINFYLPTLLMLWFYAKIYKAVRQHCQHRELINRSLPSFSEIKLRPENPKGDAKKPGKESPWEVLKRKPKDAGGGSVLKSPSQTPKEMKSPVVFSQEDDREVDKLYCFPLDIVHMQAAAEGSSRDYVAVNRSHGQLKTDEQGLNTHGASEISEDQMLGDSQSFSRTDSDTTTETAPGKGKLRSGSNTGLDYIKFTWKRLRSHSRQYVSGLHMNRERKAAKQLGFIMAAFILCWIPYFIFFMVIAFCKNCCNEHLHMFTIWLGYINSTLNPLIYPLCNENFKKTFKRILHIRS
5-hydroxytryptamine receptor 2A, sequence (P28223 whole entry): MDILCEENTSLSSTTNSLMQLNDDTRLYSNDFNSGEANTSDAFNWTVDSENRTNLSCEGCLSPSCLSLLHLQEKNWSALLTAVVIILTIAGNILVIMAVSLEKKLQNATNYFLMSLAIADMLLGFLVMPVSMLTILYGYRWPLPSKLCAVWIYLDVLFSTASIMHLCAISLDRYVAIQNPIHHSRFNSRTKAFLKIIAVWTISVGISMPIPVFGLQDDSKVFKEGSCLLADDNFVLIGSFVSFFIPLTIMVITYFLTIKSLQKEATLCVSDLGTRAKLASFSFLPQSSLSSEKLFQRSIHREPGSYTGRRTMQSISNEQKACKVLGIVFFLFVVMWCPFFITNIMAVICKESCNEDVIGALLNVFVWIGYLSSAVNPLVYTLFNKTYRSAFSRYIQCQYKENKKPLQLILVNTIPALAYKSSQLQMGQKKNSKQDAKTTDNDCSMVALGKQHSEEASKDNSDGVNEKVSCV
Adenosine receptor A2a, sequence (P29274 whole entry): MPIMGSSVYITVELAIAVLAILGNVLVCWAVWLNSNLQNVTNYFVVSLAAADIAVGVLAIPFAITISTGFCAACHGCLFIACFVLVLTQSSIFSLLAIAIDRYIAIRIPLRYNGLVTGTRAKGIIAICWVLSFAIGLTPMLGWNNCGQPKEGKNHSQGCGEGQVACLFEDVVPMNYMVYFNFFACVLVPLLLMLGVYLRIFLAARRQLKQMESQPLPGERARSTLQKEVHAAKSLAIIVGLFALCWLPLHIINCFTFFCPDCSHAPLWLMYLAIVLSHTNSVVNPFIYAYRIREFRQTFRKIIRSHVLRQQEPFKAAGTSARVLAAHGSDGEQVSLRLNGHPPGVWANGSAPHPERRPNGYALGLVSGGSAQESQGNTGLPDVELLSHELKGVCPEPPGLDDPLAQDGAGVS

Consider `COc1ccc2cccc(CCNC(C)=O)c2c1` [AGOMELATINE], for which the AC50 at Adenosine receptor A2a is above 30 µM; in [1] it was above 30 µM; in assay [2], above 10 µM; at Vasopressin V2 receptor, above 30 µM; at B2 bradykinin receptor, above 30 µM; in [3], above 30 µM. Further, the AC50 in assay [4] is above 30 µM; in assay [5], above 10 µM; at Histamine H1 receptor it was above 10 µM; in assay [6], above 30 µM; in [7], above 30 µM; in assay [8], above 30 µM. The compound further came in with an AC50 in assay [9] above 10 µM.

In the case of `CCCC(CCC)C(=O)O[C@H]1C[C@H]2CC[C@@H](C1)[N+]2(C)C` [ANISOTROPINE], the AC50 is above 30 µM on Adenosine receptor A2a; above 30 µM in assay [1]; above 30 µM at Vasopressin V2 receptor; above 30 µM at B2 bradykinin receptor; above 30 µM in [3]; 0.63 µM in assay [4]. In addition, the AC50 (at Histamine H1 receptor; in assay [10]; in assay [6]; in assay [7]; in assay [9]) was above 30 µM throughout.

In the case of `CCCCCOC(=O)Nc1nc(=O)n([C@@H]2O[C@H](C)[C@@H](O)[C@H]2O)cc1F` [CAPECITABINE], the AC50 (on Adenosine receptor A2a; in assay [1]; on Vasopressin V2 receptor; on B2 bradykinin receptor; in [3]; in [4]) was above 30 µM each time. Further, the AC50 (on Histamine H1 receptor; in assay [10]; in [6]; in [7]; in [8]; in [9]) was above 30 µM each time.

Consider `COC(=O)[C@H]1[C@@H](OC(=O)c2ccccc2)C[C@@H]2CC[C@H]1N2C` [COCAINE], for which the AC50 (at Adenosine receptor A2a; in assay [1]; in [2]; at Vasopressin V2 receptor; at B2 bradykinin receptor; in assay [3]) was above 30 µM throughout. Moreover, the concentration at half-maximal activity (AC50) (in assay [4]; in assay [5]; at Histamine H1 receptor; in assay [10]; in assay [6]; in [7]) was above 30 µM in each case. The same compound registered an AC50 in [8] above 30 µM.

Take `O=C1CN=C(c2ccccc2)c2cc(Cl)ccc2N1CC(F)(F)F` [HALAZEPAM]: the AC50 (on Adenosine receptor A2a; in [1]; on Vasopressin V2 receptor; at B2 bradykinin receptor; in assay [3]; in assay [4]) was above 30 µM in each case. The AC50 (at Histamine H1 receptor; in assay [10]; in [6]; in [7]; in [8]; in [9]) was above 30 µM throughout.

Regarding `CC/C=C\C/C=C\C/C=C\CCCCCCCC(=O)O` [LINOLENIC ACID], the AC50 (on Adenosine receptor A2a; in assay [1]; on Vasopressin V2 receptor; on B2 bradykinin receptor; in [3]; in assay [4]) was above 30 µM each time. In addition, the AC50 in assay [5] was above 30 µM; on Histamine H1 receptor it was above 30 µM; in assay [10], above 30 µM; in assay [6], above 30 µM; in assay [7], 6.3 µM; in [8] it was above 30 µM.

For the compound `C#CCN[C@@H]1CCc2ccccc21` [RASAGILINE], the AC50 (at Adenosine receptor A2a; in assay [1]; in assay [2]; on Vasopressin V2 receptor; on B2 bradykinin receptor; in assay [3]) was above 30 µM in each case. Further, the AC50 (in assay [4]; in [5]; on Histamine H1 receptor; in assay [10]; in assay [6]; in assay [7]) was above 30 µM in each case. In [8], the half-maximal activity concentration (AC50) was above 30 µM.

Take `O=C1NCCN1CCN1CCC(c2cn(-c3ccc(F)cc3)c3ccc(Cl)cc23)CC1` [SERTINDOLE]: the AC50 at Adenosine receptor A2a is above 30 µM; on Vasopressin V2 receptor, 27 µM; on B2 bradykinin receptor, above 30 µM; in [3], above 30 µM; in [4] it was above 10 µM; in assay [5], above 30 µM. The AC50 in assay [6] was above 30 µM; in assay [7], above 30 µM; in assay [8], above 30 µM; in assay [9] it was 3.4 µM.

As to `Cc1c(C(=O)Nc2ccc(N3C[C@@H](C)O[C@@H](C)C3)nc2)cccc1-c1ccc(OC(F)(F)F)cc1` [SONIDEGIB], the AC50 at Adenosine receptor A2a was above 30 µM; in assay [2], above 10 µM; on Vasopressin V2 receptor, above 30 µM; at B2 bradykinin receptor, above 30 µM; in [5] it was above 10 µM; at Histamine H1 receptor, above 10 µM. Besides, the AC50 in assay [7] was above 30 µM; in assay [8], above 30 µM; in [9] it was above 10 µM.

Regarding TOCOFERSOLAN, the AC50 (at Adenosine receptor A2a; in [1]; in [2]; at Vasopressin V2 receptor; on B2 bradykinin receptor; in assay [3]) was above 30 µM in each case. Further, the AC50 in assay [4] was above 30 µM; in assay [5] it was above 30 µM; at Histamine H1 receptor, above 30 µM; in [10], above 30 µM; in assay [6], above 30 µM; in assay [7], 4 µM. The compound also displayed an AC50 in [8] above 30 µM.
